According to patent publication US7138361B2, “Herbicidal heterocycles” (E. I. du Pont de Nemours and Company, priority 2000, dated 2006):

Assays:
Assay type in all cases: in vivo
[1] = test system: wild oat (Avena fatua); assay: Test B postemergence; details: 13 to 15 days
How it was run: (§1)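 Visual injury scores, 0 = no effect to 100 = complete control, assigned against controls after 13 to 15 days in the greenhouse. Compounds formulated in non-phytotoxic solvent plus surfactant and applied to soil after planting (pre) or onto foliage of 1- to 4-leaf plants (post).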

[2] = test system: barnyardgrass (Echinochloa crus-galli); assay: Test B postemergence; details: 13 to 15 days
How it was run: as §1

[3] = test system: cocklebur (Xanthium strumarium); assay: Test B postemergence; details: 13 to 15 days
How it was run: as §1

[4] = test system: corn (Zea mays); assay: Test B postemergence; details: 13 to 15 days
How it was run: as §1

[5] = test system: pigweed (Amaranthus retroflexus); assay: Test B postemergence; details: 13 to 15 days
How it was run: as §1

[6] = test system: crabgrass (Digitaria sanguinalis); assay: Test B postemergence; details: 13 to 15 days
How it was run: as §1

[7] = test system: lambsquarters (Chenopodium album); assay: Test B postemergence; details: 13 to 15 days
How it was run: as §1

[8] = test system: wheat (Triticum aestivum); assay: Test B postemergence; details: 13 to 15 days
How it was run: as §1

[9] = test system: giant foxtail (Setaria faberii); assay: Test B postemergence; details: 13 to 15 days
How it was run: as §1

[10] = test system: morning glory (Ipomoea hederacea); assay: Test B postemergence; details: 13 to 15 days
How it was run: as §1

[11] = test system: velvetleaf (Abutilon theophrasti); assay: Test B postemergence; details: 13 to 15 days
How it was run: as §1

[12] = test system: blackgrass (Alopecurus myosuroides); assay: Test B postemergence; details: 13 to 15 days
How it was run: as §1

[13] = test system: Surinam grass (Brachiaria decumbens); assay: Test B postemergence; details: 13 to 15 days
How it was run: as §1

[14] = test system: Sunflower; assay: Test C preemergence; details: Rate 500 g/ha, visual evaluation after 12 to 14 days
[15] = test system: kochia (Kochia scoparia); assay: Test C preemergence; details: for Plant response rating (0 to 100), Kochia: visual evaluation after 12 to 14 days
How it was run: (§2)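 Test chemicals, formulated in a non-phytotoxic solvent mixture with surfactant, were applied preemergence to planted seeds or postemergence to plants 2 to 18 cm tall (1- to 4-leaf stage). After 12 to 14 days in a greenhouse, injury was visually rated against untreated controls on a 0–100 scale.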

[16] = test system: corn (Zea mays); assay: Test C preemergence; details: for Plant response rating (0 to 100), Corn: visual evaluation after 12 to 14 days
How it was run: as §2

[17] = test system: bermudagrass (Cynodon dactylon); assay: Test C preemergence; details: for Plant response rating (0 to 100 where 0 is no effect and 100 is complete control), Bermudagrass: visual evaluation after 12 to 14 days
How it was run: as §2

[18] = test system: morningglory (Ipomoea hederacea); assay: Test C preemergence; details: for Plant response rating (0 to 100), Morningglory: Rate 500 g/ha, visual evaluation after 12 to 14 days
How it was run: as §2

[19] = test system: Sunflower; assay: Test C preemergence; details: Rate 125 g/ha; scale 0 to 100, 0 no effect, 100 complete control
[20] = test system: johnsongrass (Sorghum halepense); assay: Test C preemergence; details: for Plant response rating (0 to 100), Johnsongrass: visual evaluation after 12 to 14 days
How it was run: as §2

[21] = test system: giant foxtail (Setaria faberii); assay: Test C preemergence; details: for Plant response rating (0 to 100), Foxtail, Giant: visual evaluation after 12 to 14 days
How it was run: as §2

[22] = test system: yellow nutsedge (Cyperus esculentus); assay: Test C preemergence; details: for Plant response rating (0 to 100), Nutsedge: Rate 500 g/ha, visual evaluation after 12 to 14 days
How it was run: as §2

[23] = test system: velvetleaf (Abutilon theophrasti); assay: Test C preemergence; details: for Plant response rating (0 to 100), Velvetleaf: Rate 500 g/ha, visual evaluation after 12 to 14 days
How it was run: as §2

[24] = Rate 125 g/ha, scale 0 (no effect) to 100 (complete control)
[25] = Rate 500 g/ha, scale 0 to 100, 0 is no effect, 100 is complete control
[26] = Rate 125 g/ha, scale 0 to 100, 0 no effect, 100 complete control
[27] = preemergence, Rate 62 g/ha, scale 0 to 100
[28] = preemergence, Rate 250 g/ha, scale 0 to 100, 0 no effect, 100 complete control

## CCC(CC)c1ccn(C2CCN(c3cccc(OC(C)C)c3)C2=O)n1 (stereo not drawn) [Compound 84]
[1]; [24]
  Plant response rating, Wild Oat: 0
[1]; [25]
  Plant response rating, Wild Oat: 10
[2]; [24]
  Plant response rating, Barnyardgrass: 0
[2]; [25]
  Plant response rating, Barnyardgrass: 80
[3]; [24]
  Plant response rating, Cocklebur: 10
[3]; [25]
  Plant response rating, Cocklebur: 20
[4]; [24]
  Plant response rating, Corn: 0
[4]; [25]
  Plant response rating, Corn: 0
[5]; [24]
  Plant response rating, Pigweed: 60
[5]; [25]
  Plant response rating, Pigweed: 70
[6]; [24]
  Plant response rating, Crabgrass: 0
[6]; [25]
  Plant response rating, Crabgrass: 10
[7]; [24]
  Plant response rating, Lambsquarters: 50
[7]; [25]
  Plant response rating, Lambsquarters: 60
[8]; [24]
  Plant response rating, Wheat: 0
[8]; [25]
  Plant response rating, Wheat: 0
[9]; [24]
  Plant response rating, Foxtail, Giant: 0
[9]; [25]
  Plant response rating, Foxtail, Giant: 10
[10]; [24]
  Plant response rating, Morningglory: 10
[10]; [25]
  Plant response rating, Morningglory: 30
[11]; [24]
  Plant response rating, Velvetleaf: 0
[11]; [25]
  Plant response rating, Velvetleaf: 10
[12]; [24]
  Plant response rating, Blackgrass: 0
[12]; [25]
  Plant response rating, Blackgrass: 0
[13]; [24]
  Plant response rating, Surinam grass: 0
[13]; [25]
  Plant response rating, Surinam grass: 10
[14]
  Plant response rating (0 to 100), Sunflower: 30
[15]; [26]
  Plant response rating, Kochia: 100
[15]; [27]
  Plant response rating, Kochia: 80
[15]; preemergence, Rate 250 g/ha
  Plant response rating (0 to 100), Kochia: 100
[15]; preemergence, Rate 500 g/ha
  Plant response rating (0 to 100), Kochia: 100
[16]; [26]
  Plant response rating, Corn: 0
[16]; [27]
  Plant response rating, Corn: 0
[16]; preemergence, Rate 250 g/ha
  Plant response rating (0 to 100), Corn: 0
[16]; preemergence, Rate 500 g/ha
  Plant response rating (0 to 100), Corn: 0
[17]; [26]
  Plant response rating, Bermudagrass: 100
[17]; [27]
  Plant response rating, Bermudagrass: 100
[17]; preemergence, Rate 250 g/ha
  Plant response rating (0 to 100 where 0 is no effect and 100 is complete control), Bermudagrass: 100
[17]; preemergence, Rate 500 g/ha
  Plant response rating (0 to 100 where 0 is no effect and 100 is complete control), Bermudagrass: 100
[18]; [26]
  Plant response rating, Morningglory: 20
[18]; [27]
  Plant response rating, Morningglory: 0
[18]; preemergence
  Plant response rating (0 to 100), Morningglory: 20
[18]; [28]
  Plant response rating, Morningglory: 20
[19]
  Plant response rating, Sunflower: 10
[20]; [26]
  Plant response rating, Johnsongrass: 0
[20]; [27]
  Plant response rating, Johnsongrass: 0
[20]; preemergence, Rate 250 g/ha
  Plant response rating (0 to 100), Johnsongrass: 0
[20]; preemergence, Rate 500 g/ha
  Plant response rating (0 to 100), Johnsongrass: 0
[21]; [26]
  Plant response rating, Foxtail, Giant: 80
[21]; [27]
  Plant response rating, Foxtail, Giant: 10
[21]; preemergence, Rate 250 g/ha
  Plant response rating (0 to 100), Foxtail, Giant: 100
[21]; preemergence, Rate 500 g/ha
  Plant response rating (0 to 100), Foxtail, Giant: 100
[22]; [26]
  Plant response rating, Nutsedge: 0
[22]; [27]
  Plant response rating, Nutsedge: 0
[22]; preemergence
  Plant response rating (0 to 100), Nutsedge: 0
[22]; [28]
  Plant response rating, Nutsedge: 0
[23]; [26]
  Plant response rating, Velvetleaf: 0
[23]; [27]
  Plant response rating, Velvetleaf: 0
[23]; preemergence
  Plant response rating (0 to 100), Velvetleaf: 0
[23]; [28]
  Plant response rating, Velvetleaf: 0

## CCCC(C)c1ccn(C2OCN(c3cccc(OC(F)(F)F)c3)C2=O)n1 (stereo not drawn) [Compound 91]
[1]; [25]
  Plant response rating, Wild Oat: 0
[2]; [24]
  Plant response rating, Barnyardgrass: 50
[2]; [25]
  Plant response rating, Barnyardgrass: 90
[3]; [24]
  Plant response rating, Cocklebur: 20
[3]; [25]
  Plant response rating, Cocklebur: 80
[4]; [24]
  Plant response rating, Corn: 0
[4]; [25]
  Plant response rating, Corn: 10
[5]; [25]
  Plant response rating, Pigweed: 90
[6]; [24]
  Plant response rating, Crabgrass: 40
[6]; [25]
  Plant response rating, Crabgrass: 90
[7]; [25]
  Plant response rating, Lambsquarters: 100
[8]; [25]
  Plant response rating, Wheat: 0
[9]; [24]
  Plant response rating, Foxtail, Giant: 0
[9]; [25]
  Plant response rating, Foxtail, Giant: 40
[10]; [25]
  Plant response rating, Morningglory: 80
[11]; [25]
  Plant response rating, Velvetleaf: 30
[12]; [24]
  Plant response rating, Blackgrass: 0
[12]; [25]
  Plant response rating, Blackgrass: 0
[13]; [24]
  Plant response rating, Surinam grass: 10
[13]; [25]
  Plant response rating, Surinam grass: 10
[14]
  Plant response rating (0 to 100), Sunflower: 10
[15]; [26]
  Plant response rating, Kochia: 90
[15]; [27]
  Plant response rating, Kochia: 20
[15]; preemergence, Rate 500 g/ha
  Plant response rating (0 to 100), Kochia: 100
[15]; [28]
  Plant response rating, Kochia: 90
[16]; [26]
  Plant response rating, Corn: 0
[16]; [27]
  Plant response rating, Corn: 0
[16]; preemergence, Rate 500 g/ha
  Plant response rating (0 to 100), Corn: 10
[16]; [28]
  Plant response rating, Corn: 10
[17]; [26]
  Plant response rating, Bermudagrass: 100
[17]; [27]
  Plant response rating, Bermudagrass: 10
[17]; preemergence, Rate 500 g/ha
  Plant response rating (0 to 100 where 0 is no effect and 100 is complete control), Bermudagrass: 100
[17]; [28]
  Plant response rating, Bermudagrass: 100
[18]; [26]
  Plant response rating, Morningglory: 0
[18]; [27]
  Plant response rating, Morningglory: 0
[18]; preemergence
  Plant response rating (0 to 100), Morningglory: 0
[18]; [28]
  Plant response rating, Morningglory: 0
[19]
  Plant response rating, Sunflower: 0
[20]; [26]
  Plant response rating, Johnsongrass: 80
[20]; [27]
  Plant response rating, Johnsongrass: 20
[20]; preemergence, Rate 500 g/ha
  Plant response rating (0 to 100), Johnsongrass: 100
[20]; [28]
  Plant response rating, Johnsongrass: 90
[21]; [26]
  Plant response rating, Foxtail, Giant: 30
[21]; [27]
  Plant response rating, Foxtail, Giant: 10
[21]; preemergence, Rate 500 g/ha
  Plant response rating (0 to 100), Foxtail, Giant: 100
[21]; [28]
  Plant response rating, Foxtail, Giant: 30
[22]; [26]
  Plant response rating, Nutsedge: 0
[22]; [27]
  Plant response rating, Nutsedge: 0
[22]; preemergence
  Plant response rating (0 to 100), Nutsedge: 0
[22]; [28]
  Plant response rating, Nutsedge: 0
[23]; [26]
  Plant response rating, Velvetleaf: 0
[23]; [27]
  Plant response rating, Velvetleaf: 0
[23]; preemergence
  Plant response rating (0 to 100), Velvetleaf: 0
[23]; [28]
  Plant response rating, Velvetleaf: 0
